The values below come from patent US20110118337A1, “Method of Using Compositions Comprising MIR-192 and/or MIR-215 for the Treatment of Cancer” (Merck Sharp & Dohme Corp., priority 2008, published 2011).

Where “and” joins values, the source holds several entries; their conditions need not be identical. Equal entries are not always repeated.

The test system of data set [1] is 18 candidate downstream targets of miR-192/miR-215 in U-2-OS cells. The data set is described as follows: Transcript abundance of target genes by quantitative PCR (Taqman). Type of data set: cell-based. The note with it: 10 nM, 10 hours following transfection, relative to luciferase siRNA or miR-192 seed region mutant. The procedure: To further confirm that the candidate genes shown in TABLE 7 and TABLE 8 are direct downstream targets of miR-192/miR-215, miR-192 siRNA (10 nM) synthetic duplexes, miR-192 mutant (10 nM) or 10 nM siRNA against luciferase were transfected into the cell line U-2-OS, an osteosarcoma cell line that has wild-type DICER function and a relatively low endogenous level of miR-192/miR-215.
RNA was isolated at 10 hours post-transfection and transcript abundance of the target genes shown in TABLE 7 and TABLE 8 was measured by quantitative PCR. Transcript abundance was measured by Taqman gene expression assay (Applied Biosystems) using hGUS as an internal control. Levels of transcripts were quantified using an ABI Prism 7900HT sequence detection system.
Background: Real-time PCR tracks product formation cycle by cycle.

The test system of data set [2] is HCT116DICER^ex5 cells. The data set is described as follows: Phospho-histone H3 immunostaining, flow cytometry (M-phase), nocodazole-treated. To be noted: phospho-histone-H3 positive, 10 nM duplex. Type of data set: cell-based, human. The procedure: (§1) At 48 hours post transfection, cells were left untreated, treated with nocodazole (100 ng/mL, Sigma-Aldrich), or treated with aphidicolin (2 μg/mL, Sigma-Aldrich) for an additional 18 hours before harvesting. The cells were then trypsinized, collected, fixed and stained with a propidium iodide solution. BrdU-labeling was performed according to the manufacturer's instructions (BD-Pharmigen). For phospho-histone H3 analysis, cells were fixed and permeabilized with IPF buffer (100 mM PIPES pH 6.8, 10 mM EDTA, 1 mM MgCl2, 0.2% Triton X-100, 4% formaldehyde) and stained with propidium iodide and anti-phospho-histone H3 antibody conjugated to Alexa-488 (Cell Signaling Technology). The cells were analyzed using a FACSCalibur flow cytometer (Beacton Dickinson) and FlowJo software (Tree Star, Inc.).
Nocodazole-treated mock transfected and miR-192 transfected cells were also permeabilized, immunostained for phospho-histone-H3 (a mitotic marker) and sorted for DNA content and the respective accumulation of positively stained cells in the mitotic compartment was quantified. It was determined that the percentage of cells in M-phase in the mock transfected population was 40.9%, whereas the percentage of cells in M-phase in the miR-192 transfected population was 4.9%.
A general note: A flow cytometer gives signals particle by particle.

In data set [3] the test system is HCT116DICER^ex5 cells. The data set is described as follows: Cell cycle FACS analysis of siRNAs against top G1 and G2 arrest genes (nocodazole or aphidicolin). Type of data set: cell-based, human. To be noted: 10 mM miR-192. As for the experimental part: Of the 62 genes shown above in TABLE 6, the 10 genes whose targeting by siRNA caused the largest percentage of cells to arrest in G1, listed below in TABLE 7, were transfected into HCT116DICER^ex5 cells in another experiment as follows.
HCT116DICER^ex5 cells were transfected with […] miR-192 or 100 nM siRNA against luciferase, or 100 nM siRNA (one siRNA duplex of the pool of three) against the putative miR-192 target of interest, as indicated in TABLES 7 and 8. At 48 hours post transfection, cells were treated with nocodazole or aphicicolin for an additional 18 hours prior to FACS analysis. The results for the nocodazole treated cells (% of cells in G1) are provided in TABLE 7, and graphically illustrated in FIG. 3A. The results for the aphidicolin treated cells (% of cells in G2) are provided in TABLE 8 and graphically illustrated in FIG. 3B.

Data set [4] relates to HCT116DICER^ex5 cells. Description: BrdU pulse-labeling, flow cytometry (S-phase). Type of data set: cell-based, human. The note with it: BrdU pulse-labeled; 10 nM duplex. The procedure: as §1
The transfected cells were also pulse-labeled with the thymidine analog 5-bromo-deoxyuridine (BrdU) to assay for defects in DNA synthesis. Using flow cytometry and it was determined that the percentage of cells in S-phase in the mock transfected population was 37.3%, whereas the percentage of cells in S-phase in the miR-192 transfected population was 11.9%.

The test system of data set [5] is HCT116DICER^ex5 cells. Description: Cell cycle distribution by propidium iodide FACS after miR-192 duplex transfection (untreated, nocodazole or aphidicolin). The note with it: for % Cells with 2N (G1/S) / % Cells with 4N (G2/M): 10 nM duplex, 66 hours after transfection. Type of data set: cell-based, human. As for the experimental part: as §1
In data set [6] the test system is HCT116DICER^ex5 cells. Description: Transfection of siRNA pools (G1 or G2 gene set) at suboptimal levels, cell cycle FACS analysis (nocodazole or aphidicolin). Type of data set: cell-based, human. To be noted: 10 nM; for % G1 / % G2: 66 hours post transfection. As for the experimental part: […] At 48 hours post-transfection into HCT116DICER^ex5 cells, the cells were treated with nocodazole for an additional 18 hours prior to FACS analysis.
[…] At 48 hours post-transfection into HCT116DICER^ex5 cells, the cells were treated with aphidicolin for an additional 18 hours prior to FACS analysis.

The test system of data set [7] is 3′ UTRs of the 18 candidate genes in U-2-OS cells. Description: 3′ UTR luciferase reporter analysis. Type of data set: cell-based. The note with it: 10 nM, 24 hours post-transfection. From the text: In order to test whether miR-192 is regulating these genes through seed sequence-specific recognition of binding sites within their 3' UTRs, a series of reporter constructs were generated containing the entire natural 3' UTRs of the 18 candidate genes (BCL2, CDC7, CUL5, DLG5, DTL, ERCC3, HOXA10, HRH1, LMNB2, MAD2L1, MCM10, MIS12, MPHOSPH1, PIM1, PRPF38A, […]1, SEPT10 and SMARCB1) inserted downstream of a luciferase open reading frame (SwitchGear Genomics) to create 3' UTR luciferase reporter plasmids. U-2-OS cells were transfected first with 10 nM miR-192 or 10 nM miR-192 mutant, and subsequently transfected 4 to 6 hours later with these 3' UTR reporter plasmids. A renilla luciferase expression plasmid from dual luciferase system (Promega) was used as an internal control. Luciferase activity was measured at 24 hours post-transfection, and quantified relative to renilla luciferase activity.
(A reporter such as luciferase makes a cellular process visible.)

Setting [8] is: compared with mock or mutant miR-192-transfected cells.

On to “miR-192: Synthetic duplex mimetic of miR-192, guide CUGACCUAUGAAUUGACAGCC (SEQ ID NO:1), passenger SEQ ID NO:7 (sense CUGUCAAUUCAUCGGUCUGAU; listed as RNA, chemistry not given here; listed as Homo sapiens)”, for which the “candidate gene transcript levels” value in data set [1] is “decrease”. In the data set on HCT116DICER^ex5 cells [2], the “percentage of cells in M-phase” value came to 4.9%. Also, the “% Cells in G2” value in the data set with HCT116DICER^ex5 cells [3] (aphidicolin 18 hours from 48 hours post transfection) is recorded as 42.3%. Further, in the data set with HCT116DICER^ex5 cells [3] (nocodazole 18 hours from 48 hours post transfection), the “% Cells in G1” value was 37.9%. In addition, the “percentage of cells in S-phase” value with HCT116DICER^ex5 cells [4] is reported as 11.9%. Besides, in the data set with HCT116DICER^ex5 cells [5] (aphidicolin 2 μg/mL 18 hours), the “% Cells with 2N (G1/S)” value turned out to be 46.3% and the “% Cells with 4N (G2/M)” value is listed as 47.4%. In the data set on HCT116DICER^ex5 cells [5] (setting [8]), the G2/M phase population entry was “increase” and the S phase population entry was “significant decrease”. Besides, in the data set on HCT116DICER^ex5 cells [5] (nocodazole 100 ng/mL 18 hours), the “% Cells with 2N (G1/S)” value was 36% and 36.3%; the “% Cells with 4N (G2/M)” value was determined as 56.5%. Besides, the “accumulation in the G2/M phase” value with HCT116DICER^ex5 cells [5] (treated with aphidicolin) was “a significant fraction”. Also, in the data set on HCT116DICER^ex5 cells [5] (untreated), the “% Cells with 2N (G1/S)” value amounted to 48.6% and the “% Cells with 4N (G2/M)” value was found to be 44.6%. Besides, in the data set on HCT116DICER^ex5 cells [6] (after aphidicolin treatment), the “% G1” value was found to be 50.4% and the “% G2” value is given as 44.7%. For the same substance, in the data set with HCT116DICER^ex5 cells [6] (aphidicolin), the G2 arrest phenotype result is “induced a G2-arrest phenotype”. Also, in the data set with HCT116DICER^ex5 cells [6] (nocodazole), the G1 arrest phenotype result was “induced a G1-arrest phenotype”, the “% G1” value worked out at 43.9% and the “% G2” value is on record as 53.6%. In addition, the “regulation of 3′ UTR luciferase reporters of the 18 genes” value in data set [7] is reported as “regulated”.
